Read-outs that look alike come from different tables or passages of the source.
Tests used:
[1] = tested on: Jcl:SD strain male rats; experiment: Study of pungency (eye wiping test); assay type: in vivo; details: a drop into the eye of rats, counted for 3 minutes, average ± S.E.M.
Protocol: Experiment 2: Study of Pungency (Eye Wiping Test)
The pungency of the test compounds were studied referring to the method of Jancso et al. [Acta Physiol. Acad. Sci. Hung., 19, 113–131 (1961)] and the method of Szallasi et al. [Brit. J. Pharmacol., 119, 283–290 (1996)]. A test compound was dissolved in a physiological saline solution containing 10% ethanol and 10% Tween 80 into various concentrations (μg/ml), and a drop of the solution thereof was added dropwise into the eye of Jcl:SD strain male rats (5 to 25 […] per group, body weight; 220 to 280 g). Then, the number of the protective wiping movements with forefoot was counted for 3 minutes, and was considered as an index for pungency. The test results are expressed as average value±S.E.M., and the statistical significant differences between each test compound-treated group and the control group were analyzed using non-parametric Dunnett's multiple range test, and p<0.05 was considered as significant difference.

[2] = tested on: male Std:ddY mice; experiment: Phenyl-1,4-benzoquinone-induced writhing test; assay type: in vivo; details: for ED50 / ED50 (mg/kg sc) / ED50 (mg/kg po) / Inhibitory percentage (%): writhing inhibition; for ED50 / ED50 (mg/kg sc) / ED50 (mg/kg po): logit analysis; for inhibition in vivo at 1 mg/kg / inhibition in vivo at 10 mg/kg: 1 h; for inhibition in vivo at 1 mg/kg: subcutaneously administered at a dose of 1 mg/kg; for inhibition in vivo at 1 mg/kg / inhibition in vivo at 10 mg/kg / Inhibitory percentage (%): 60 minutes before PBQ; for inhibition in vivo at 10 mg/kg / Inhibitory percentage (%): orally administered at a dose of 10 mg/kg
Protocol: Phenyl-1,4-benzoquinone-induced Writhing Test Referring to the method disclosed in Proc. Soc. exp. Biol. […] For oral administration, a test compound was suspended in 0.5% tragacanth solution. […] In the control group, a physiological saline solution containing 10% Tween 80 and 10% ethanol was administered in the case of subcutaneous administration, or a 0.5% tragacanth solution was administered in the case of oral administration. The number of writhing movements in the test compound-treated group was compared with that in the control group, and the writhing inhibitory percentage was calculated therefrom and considered as an analgesic effect. Writhing inhibitory percentage (%)=[(A−B)/A]×100 In the above equation, A means the number of writhing movements in the control group, and B means the number of writhing movements in the test compound-treated group. From the writhing inhibitory percentage of the test compound, ED50 (mg/kg) was calculated by logit analysis.

[3] = Mus musculus, po, oral administration, read-out: ED50 (mg/kg po)
[4] = Mus musculus, sc, read-out: Inhibitory percentage (%)
[5] = Mus musculus, sc, subcutaneous administration, read-out: ED50 (mg/kg sc)
[6] = Mus musculus, po, read-out: Inhibitory percentage (%)

## COc1cc(CNC(=O)CCCC/C=C/C(C)C)ccc1O [Capsaicin, trans-8-methyl-N-vanillyl-6-nonenamide, reference compound]
[1]; concentration 1 μg/ml
  Number of wiping movements: 6.0 ± 0.8
[1]; concentration 2 μg/ml
  Number of wiping movements: 7.8 ± 1.4
[1]; concentration 5 μg/ml
  Number of wiping movements: 11.2 ± 3.0
[1]; concentration 5 μg/ml, listed as capsaicin
  Number of wiping movements: significantly increased
[1]; concentration 10 μg/ml
  Number of wiping movements: 26.4 ± 6.0
[1]; concentration 20 μg/ml
  Number of wiping movements: 38.0 ± 4.8
[2]; [3]
  ED50: > 30 mg/kg
[2]; Mus musculus, po, orally administered at a dose of 30 mg/kg, read-out: Inhibitory percentage (%)
  inhibition in vivo at 30 mg/kg: 20.6%
[2]; [4]
  inhibition in vivo at 1 mg/kg: 46.6%
[2]; [5]
  ED50: 1.15 mg/kg

## COc1cc(CC(=O)Nc2cccc(C3CCC(C(C)(C)C)CC3)c2)ccc1O (stereo not shown) [Example 20, N-[3-(4-tert-butylcyclohexan-1-yl)phenyl]-4-hydroxy-3-methoxyphenylacetamide]
[1]; concentration 100 μg/ml
  Number of wiping movements: 5.0 ± 1.3
[1]; concentration 500 μg/ml
  Number of wiping movements: 10.6 ± 0.7
[2]; [6]
  inhibition in vivo at 10 mg/kg: 97.1%
[2]; [3]
  ED50: 1.28 mg/kg
[2]; [4]
  inhibition in vivo at 1 mg/kg: 96.1%
[2]; [5]
  ED50: ≤ 0.1 mg/kg
[2]; subcutaneous administration, listed as Ex. 20
  ED50 (mg/kg sc): 0.056 mg/kg

## COc1cc(CC(=O)Nc2cccc(CCc3ccccc3)c2)ccc1OCCN [Example 60, 4-(2-aminoethoxy)-3-methoxy-N-[3-(2-phenylethyl)phenyl]-phenylacetamide]
[1]; concentration 500 μg/ml
  Number of wiping movements: no significant increase
[1]; concentration 500 μg/ml, listed as Ex. 60
  Number of wiping movements: 4.2 ± 1.2
[1]; concentration 1000 μg/ml
  Number of wiping movements: 8.4 ± 2.1
[2]; [3]
  ED50: ≤ 1 mg/kg
[2]; [4]
  inhibition in vivo at 1 mg/kg: 50.5%
[2]; [5]
  ED50: 0.83 mg/kg
[2]; oral administration, listed as Ex. 60
  ED50 (mg/kg po): 0.68 mg/kg

## COc1cc(CC(=O)Nc2cccc(C3CCCCC3)c2)ccc1OCCN [Example 61, 4-(2-aminoethoxy)-N-(3-cyclohexylphenyl)-3-methoxyphenylacetamide]
[1]; concentration 20 μg/ml
  Number of wiping movements: 2.0 ± 0.8
[1]; concentration 100 μg/ml
  Number of wiping movements: 7.4 ± 2.1
[1]; concentration 500 μg/ml
  Number of wiping movements: 15.6 ± 4.5
[2]; [6]
  inhibition in vivo at 10 mg/kg: 89%
[2]; [3]
  ED50: 3 mg/kg
[2]; [4]
  inhibition in vivo at 1 mg/kg: 72.8%
[2]; [5]
  ED50: 0.13 mg/kg

## COc1cc(CC(=O)Nc2cccc(C3CCC(C(C)(C)C)CC3)c2)ccc1OCCN (stereo not shown) [Example 62, 4-(2-aminoethoxy)-N-[3-(4-tert-butylcyclohexan-1-yl)phenyl]-3-methoxyphenylacetamide]
[1]; concentration 500 μg/ml
  Number of wiping movements: no significant increase
[1]; concentration 500 μg/ml, listed as Ex. 62
  Number of wiping movements: 4.6 ± 1.2
[1]; concentration 1000 μg/ml
  Number of wiping movements: 7.6 ± 1.4
[2]; [6]
  inhibition in vivo at 10 mg/kg: 96.1%
[2]; [4]
  inhibition in vivo at 1 mg/kg: 100%
[2]; [5]
  ED50: 0.23 mg/kg
[2]; oral administration, listed as Ex. 62
  ED50 (mg/kg po): 0.43 mg/kg

## COc1cc(CC(=O)Nc2ccc(C)c(-c3ccccc3)c2)ccc1OCCN [Example 173, 4-(2-aminoethoxy)-3-methoxy-N-[(3-phenyl-4-methyl)phenyl]-phenylacetamide]
[2]; oral administration, listed as Ex. 173
  ED50 (mg/kg po): 0.87 mg/kg
[2]
  Inhibitory percentage (%): 100%

## COc1ccc(-c2ccccc2)cc1NC(=O)Cc1ccc(OCCN)c(OC)c1 [Example 177, 4-(2-aminoethoxy)-3-methoxy-N-[(2-methoxy-5-phenyl)phenyl]-phenylacetamide]
[2]; oral administration
  ED50 (mg/kg po): 3.41 mg/kg
[2]
  Inhibitory percentage (%): 78.9%

## COc1cc(CC(=O)Nc2cc(-c3ccccc3)cc(C(F)(F)F)c2)ccc1OCCN [Example 178, 4-(2-aminoethoxy)-3-methoxy-N-[(3-trifluoromethyl-5-phenyl)-phenyl]phenylacetamide]
[2]; oral administration
  ED50 (mg/kg po): 1.65 mg/kg
[2]
  Inhibitory percentage (%): 100%

## COc1cc(CC(=O)Nc2ccc(OC(F)(F)F)c(-c3ccccc3)c2)ccc1OCCN [Example 179, 4-(2-aminoethoxy)-3-methoxy-N-[(3-phenyl-4-trifluoromethoxy)-phenyl]phenylacetamide]
[2]; oral administration, listed as Ex. 179
  ED50 (mg/kg po): 0.95 mg/kg
[2]
  Inhibitory percentage (%): 100%

## COc1cc(CC(=O)Nc2cc(-c3ccccc3)c(C)c(-c3ccccc3)c2)ccc1OCCN [Example 181, 4-(2-aminoethoxy)-3-methoxy-N-[(4-methyl-3,5-diphenyl)-phenyl]phenylacetamide]
[2]; oral administration
  ED50 (mg/kg po): 1.11 mg/kg
[2]
  Inhibitory percentage (%): 80.9%

## COc1cc(CC(=O)Nc2cccc(-c3cccc(C4CCCCC4)c3)c2)ccc1OCCN [Example 183, 4-(2-aminoethoxy)-N-[3-(3-cyclohexylphenyl)phenyl]-3-methoxyphenylacetamide]
[2]; [6]
  inhibition in vivo at 10 mg/kg: 83.5%
[2]; [3]
  ED50: 3.09 mg/kg

## COc1cc(CC(=O)Nc2cccc(-c3ccccc3C(C)(C)C)c2)ccc1OCCN [Example 184, 4-(2-aminoethoxy)-N-[3-(2-tert-butylphenyl)phenyl]-3-methoxyphenylacetamide]
[2]; [6]
  inhibition in vivo at 10 mg/kg: 100%
[2]; [3]
  ED50: ≤ 1 mg/kg
[2]; oral administration, listed as Ex. 184
  ED50 (mg/kg po): 0.60 mg/kg

## COc1cc(CC(=O)Nc2cccc([C@H]3CC[C@@H](C(C)(C)C)CC3)c2)ccc1OCCN [Example 194, 4-(2-aminoethoxy)-N-[3-[(cis)-4-tert-butylcyclohexan-1-yl]-phenyl]-3-methoxyphenylacetamide]
[2]; [6]
  inhibition in vivo at 10 mg/kg: 96.2%
[2]; [3]
  ED50: 1.05 mg/kg

## COc1cc(CC(=O)Nc2cccc([C@H]3CC[C@H](C(C)(C)C)CC3)c2)ccc1OCCN [Example 195, 4-(2-aminoethoxy)-N-[3-[(trans)-4-tert-butylcyclohexan-1-yl]-phenyl]-3-methoxyphenylacetamide]
[2]; [6]
  inhibition in vivo at 10 mg/kg: 77.7%

## COc1cc(CC(=O)Nc2cccc(N3CCCCC3)c2)ccc1OCCN [Example 197, 4-(2-aminoethoxy)-3-methoxy-N-[3-(piperidin-1-yl)phenyl]-phenylacetamide]
[2]; [6]
  inhibition in vivo at 10 mg/kg: 89.1%
[2]; [3]
  ED50: 5.26 mg/kg

## COc1cc(CC(=O)Nc2cccc(N3CCCC(C4CCCCC4)C3)c2)ccc1OCCN (stereo not shown) [Example 199, 4-(2-aminoethoxy)-N-[3-(3-cyclohexylpiperidin-1-yl)phenyl]-3-methoxyphenylacetamide]
[2]; [6]
  inhibition in vivo at 10 mg/kg: 71.6%

## COc1cc(CC(=O)Nc2cccc(N3CCCC(c4ccccc4)C3)c2)ccc1OCCN (stereo not shown) [Example 200, 4-(2-aminoethoxy)-3-methoxy-N-[3-(3-phenylpiperidin-1-yl)-phenyl]phenylacetamide]
[2]; [6]
  inhibition in vivo at 10 mg/kg: 84.2%

## COc1cc(CC(=O)Nc2cccc(N3CCCC4(CCCCC4)C3)c2)ccc1OCCN [Example 201, 4-(2-aminoethoxy)-3-methoxy-N-[3-(2-azaspiro[5, 5]undecan-2-yl)phenyl]phenylacetamide]
[2]; [6]
  inhibition in vivo at 10 mg/kg: 100%
[2]; [3]
  ED50: 2.04 mg/kg

## COc1cc(CC(=O)Nc2cccc(CCc3cccc(C)c3)c2)ccc1OCCN [Example 217, 4-(2-aminoethoxy)-3-methoxy-N-[3-[2-(3-methylphenyl)ethyl]-phenyl]phenylacetamide]
[2]; [6]
  inhibition in vivo at 10 mg/kg: 96.3%
[2]; [3]
  ED50: 1.13 mg/kg

## COc1cc(CC(=O)Nc2cccc(CCc3ccccc3F)c2)ccc1OCCN [Example 219, 4-(2-aminoethoxy)-3-methoxy-N-[3-[2-(2-fluorophenyl)ethyl]-phenyl]phenylacetamide]
[2]; [6]
  inhibition in vivo at 10 mg/kg: 94%
[2]; [3]
  ED50: 1.46 mg/kg

## COc1cc(CC(=O)Nc2ccc3ccn(Cc4ccccc4)c3c2)ccc1OCCN [Example 238, 4-(2-aminoethoxy)-3-methoxy-N-[1-benzylindol-6-yl]phenylacetamide]
[2]; [4]
  inhibition in vivo at 1 mg/kg: 70.2%
[2]; [5]
  ED50: 0.37 mg/kg

## COc1cc(CC(=O)Nc2ccc3c(c2)C(=O)C(Cc2ccccc2)CC3)ccc1O (stereo not shown) [Example 249, 4-hydroxy-3-methoxy-N-[1-oxo-2-phenylmethyl-1,2,3,4-tetrahydronaphthalen-7-yl]phenylacetamide]
[2]; [4]
  inhibition in vivo at 1 mg/kg: 89.4%
[2]; subcutaneous administration, listed as Ex. 249
  ED50 (mg/kg sc): 0.043 mg/kg

— US7084176B2, “N-arylphenylacetamide derivatives and medicinal compositions containing the same” (Dainippon Pharmaceutical Co., Ltd., priority 2001, dated 2006)
